{
  "source": "patent US10793535B2",
  "about": "“Heterocyclic glutaminase inhibitors” (Calithera Biosciences, Inc., priority 2012, dated 2020)",
  "key": {"[1]": {"tested_on": "multiple myeloma cells (MM1S cells, RPMI-8226 cells)", "experiment": "Treatment of multiple myeloma cells with a combination of drugs", "type": "cell-based", "conditions": "72 hours, Cell Titer Glo, combination indices (Calcusyn)", "protocol": "At the end of the incubation, cell viability was measured using Cell Titer Glo as per manufacturer's protocol (Promega, Madison, Wis.). Measured values for compound-treated cells were normalized to DMSO-treated cells and data is reported as a cell survival ratio with a value of 1 (one) corresponding to maximum cell survival and a value of 0 (zero) corresponding to no cell survival. Cell survival ratios for all compound treatments are represented as bar graphs. Combination indices were calculated using the Calcusyn program (biosoft.com) and reported for individual mixtures of compound 670 and pomalidomide [POM] (panels A &C) and individual mixtures of compound 670 and dexamethasone [DEX] (panels B & D). Compound mixtures that produced a synergistic anti-tumor activity are highlighted."}, "[2]": {"experiment": "Pharmacokinetic studies in rats", "type": "in vivo", "conditions": "female, Sprague-Dawley, plasma, Rat", "protocol": "For PK studies performed in rats, groups of three female Sprague-Dawley Rats, age 7-10 weeks, with jugular vein cannulae were dosed orally by gavage (5-10 mL/kg) with test compounds. Serial blood samples were collected via the jugular vein cannulae at multiple time-points pre and post-dose. Blood samples were placed into K2 EDTA coated tubes on kept on ice. Samples were centrifuged at 2500×g for 10 minutes at 4° C. and plasma isolated. Plasma was stored at ˜70° C. until bioanalytical analysis.\n(§1) The plasma samples were analyzed using Liquid chromatography tandem mass spectrometry (LC/MS/MS) methods. Frozen plasma samples were thawed on ice or room temperature. Aliquotes of study plasma samples and calibration samples prepared in the same matrix as the study samples were quenched in an organic solvent (methanol, acetonitrole or DMF) containing an internal standard. The mixtures were then centrifuged and filtered and the filtrates were injected to an LC/MS/MS system to determine concentrations of test compounds."}, "[3]": {"experiment": "Pharmacokinetic studies in mice", "type": "in vivo", "conditions": "female, CD-1, mouse, plasma, po, 25% HPBCD/10 mM Citrate pH 2.2, Solution", "protocol": "For PK studies performed in mice, female CD-1 mice, age 5-8 weeks, were dosed orally by gavage (10 mL/kg volume) with test compounds. At pre-determined time-points (e.g. 1, 3, and 6 hrs) post-dosing, groups of three mice were sacrificed by CO2 inhalation and blood collected via cardiac puncture. Blood samples were placed into K2 EDTA coated tubes and kept on ice. Samples were centrifuged at 2000×g for 10 minutes at 4° C. and plasma isolated. Plasma was stored at ˜70° C. until bioanalytical analysis.\nas §1"}, "[4]": {"tested_on": "RPMI-8226 multiple myeloma xenograft", "experiment": "Multiple myeloma xenograft study", "type": "in vivo, mouse", "conditions": "RPMI-8226 xenograft, 200 mg/kg orally BID for 28 days", "protocol": "Female CB.17 SCID mice (n=20) age 8-12 weeks were implanted subcutaneously with 1×10^7 RPMI-8226 myeloma cells per mouse mixed 1:1 with Matrigel. […] For both groups, dosing was initiated when tumors reached a volume of 100-150 mm^3 and continued orally BID for 28 days. Tumors were measured with calipers two times per week and tumor volume calculated using the formula tumor volume (mm^3)=(a×b^2/2) where ‘b’ is the smallest diameter and ‘a’ is the largest perpendicular diameter. **P-value <0.01 (Two-sided T-test)."}, "P493-6 (myc \"on\") cells": {"tested_on": "P493-6 (myc \"on\") cells", "experiment": "Cell proliferation assay", "type": "cell-based", "conditions": "read-out: Cell prolif P493 72 h IC50; 72 h", "protocol": "P493-6 (myc “on”) cells were maintained in growth media (RPMI-1640, 10% FBS, 2 mM glutamine, 100 units/ml Penicillin and 100 μg/ml streptomycin) at 37° C. with 5% CO2. For compound assay, P493-6 cells were plated in 96-well V-bottom plates on the day of compound addition in 50 μl of growth media at a cell density of 200,000 cells/ml (10,000 cells/well). Compounds were serially diluted in 100% DMSO at 200-times the final concentration. Compounds were diluted 100-fold into growth media and then 50 μl of this mixture was added to cell plates making the final concentration of DMSO 0.5%. Cells were incubated with compound for 72 hrs at 37° C. with 5% CO2 and analyzed for antiproliferative effects either by Cell Titer Glo (Promega) or FACS analysis using the Viacount (Millipore) kit on the Guava instrument."}, "[5]": {"tested_on": "H2122 lung adenocarcinoma xenograft", "experiment": "Lung adenocarcinoma xenograft efficacy study", "type": "in vivo, mouse", "conditions": "200 mg/kg orally BID for 23 days", "protocol": "Female scid/beige mice (n=20) age 6-8 weeks were implanted subcutaneously with 1×10^7 H2122 lung adenocarcinoma cells per mouse suspended in PBS. […] For both groups, dosing was initiated 24 hours post-implant and continued orally BID for 23 days. Tumors were measured with calipers three times per week and tumor volume calculated using the formula tumor volume (mm^3)=(a×b^2/2) where ‘b’ is the smallest diameter and ‘a’ is the largest perpendicular diameter. **P-value <0.01 (Two-sided T-test)."}, "Caco-2 cell monolayers": {"tested_on": "Caco-2 cell monolayers", "experiment": "Caco-2 permeability assay", "type": "in vitro ADME, human", "text": "Caco-2 cells are commonly used in a confluent monolayer on a cell culture insert filter. When cultured in this format and under specific conditions, the cells become differentiated and polarized such that their phenotype, morphologically and functionally resembles the enterocytes lining the small intestine. The cell monolayer provides a physical and biochemical barrier to the passage of small molecules, and is widely used across the pharmaceutical industry as an in vitro model of the human small intestinal mucosa to predict the absorption of orally administered drugs (Hidalgo et al., Gastroenterology, 1989; Artursson, J. Pharm. Sci., 1990). The correlation between the in vitro apparent permeability (P ? app) across Caco-2 monolayers and the in vivo absorption is well established (Artursson et al., Biochem. Biophys. Res. Comm., 1991).\nThe present assay was used to determine the bidirectional permeability of the compounds of the invention through Caco-2 cell monolayers. Caco-2 cells were grown in confluent monolayers where the media of both the apical (A) and basolateral (B) sides were at pH 7.4. Compounds were dosed at 1 μM in the presence of 200 μM Lucifer Yellow, on the apical side (A→B) or the basolateral side (B→A) for assessment, in duplicate.\nThe absorption potential of compounds were classified as either Low (P-app<1×10^−6 cm/s) or High (P-app>1×10^−6 cm/s)."}, "[6]": {"conditions": "25 mg/kg oral, 20% HPBCD/10 mM Citrate pH 2.0, Solution"}, "[7]": {"conditions": "80 mg/kg oral, 65% HPBCD/10 mM Citrate pH 2.6, Solution"}, "[8]": {"conditions": "250 mg/kg oral, 40% HPBCD/10 mM Citrate pH 2.2, Solution"}, "[9]": {"conditions": "500 mg/kg oral, 40% HPBCD/10 mM Citrate pH 2.2, Solution"}},
  "data": [
    {"smiles": "O=C(Cc1cccc(OC(F)(F)F)c1)Nc1ccc(CCCCc2nnc(NC(=O)Cc3ccccn3)s2)nn1", "note": "[Compound 670]", "values": [
      {"measurement": "anti-tumor effect in combination with dexamethasone", "setting": "[1]", "result": "synergizes"},
      {"measurement": "anti-tumor effect in combination with pomalidomide", "setting": "[1]", "result": "synergizes"},
      {"measurement": "Cmax", "setting": "[2]; [6]", "result": 4.4, "unit": "µM"},
      {"measurement": "Tmax", "setting": "[2]; [6]", "result": 1, "unit": "h"},
      {"measurement": "Cmax", "setting": "[2]; [7]", "result": 12.5, "unit": "µM"},
      {"measurement": "Tmax", "setting": "[2]; [7]", "result": 1, "unit": "h"},
      {"measurement": "Cmax", "setting": "[2]; [8]", "result": 9.9, "unit": "µM"},
      {"measurement": "Tmax", "setting": "[2]; [8]", "result": 24, "unit": "h"},
      {"measurement": "Cmax", "setting": "[2]; [9]", "result": 15.3, "unit": "µM"},
      {"measurement": "Tmax", "setting": "[2]; [9]", "result": 2, "unit": "h"},
      {"measurement": "Cmax", "setting": "[3]; 100 mg/kg, 100 mg/kg oral", "result": 5.75, "unit": "µM"},
      {"measurement": "Tmax", "setting": "[3]; 100 mg/kg, 100 mg/kg oral", "result": 1, "unit": "h"},
      {"measurement": "Cmax", "setting": "[3]; 200 mg/kg, 200 mg/kg oral", "result": 5.05, "unit": "µM"},
      {"measurement": "Tmax", "setting": "[3]; 200 mg/kg, 200 mg/kg oral", "result": 1, "unit": "h"},
      {"measurement": "tumor size", "setting": "[4]", "result": "reduced tumor size"},
      {"measurement": "IC50", "setting": "P493-6 (myc \"on\") cells", "result": 30, "unit": "nM"},
      {"measurement": "tumor size", "setting": "[5]", "result": "reduced tumor size"},
      {"measurement": "Significant Efflux", "setting": "Caco-2 cell monolayers", "result": "Yes (efflux ratios being significant when greater than or equal to 3 when the Papp (B→A) was greater than or equal to 1×10^−6 cm/s)"}
    ]}
  ]
}
